# Reference: ChEMBL document CHEMBL1201862, “PubChem BioAssay data set” (2004)
# “And” between values parts separate entries of the source, which are not always exact repeats. Equal values may be shown once.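 How tested: cells in 96-well plates exposed to compound for 48 hours at five concentrations. At the GI50, growth is halved.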 The source made the active and inactive calls. Rule as the data show it: active = GI50 up to about 1.1 µM and inactive = higher.
# Tests used:
# Experiment in all cases: NCI tumour cell line growth inhibition, 48 h
# DMS-273 = test system: DMS-273
# LXFL 529 = test system: LXFL 529
# SF-268 = test system: SF-268
# UO-31 = test system: UO-31
# NCI-H226 = test system: NCI-H226
# COLO 205 = test system: COLO 205
# XF498 = test system: XF498
# EKVX = test system: EKVX
# Malme-3M = test system: Malme-3M
# OVCAR-8 = test system: OVCAR-8
# HCT-116 = test system: HCT-116
# MOLT-4 = test system: MOLT-4
# HCC 2998 = test system: HCC 2998
# HT-29 = test system: HT-29
# M19-MEL = test system: M19-MEL
# U-251 = test system: U-251
# HL-60 = test system: HL-60
# RXF 393 = test system: RXF 393
# SR = test system: SR
# PC-3 = test system: PC-3
SMILES,GI50 (DMS-273),GI50 (LXFL 529),GI50 (SF-268),GI50 (UO-31),GI50 (NCI-H226),GI50 (COLO 205),GI50 (XF498),GI50 (EKVX),GI50 (Malme-3M),GI50 (OVCAR-8),GI50 (HCT-116),GI50 (MOLT-4),GI50 (HCC 2998),GI50 (HT-29),GI50 (M19-MEL),GI50 (U-251),GI50 (HL-60),GI50 (RXF 393),GI50 (SR),GI50 (PC-3)
CN(C)CCOc1cccc2c1C(=O)c1ccccc1C2=O,10.1 µM (inactive),12.1 µM (inactive),9.79 µM (inactive),4.52 µM (inactive),9.95 µM (inactive),4.38 µM (inactive),18.7 µM (inactive),18.4 µM (inactive),13.6 µM (inactive),9.48 µM (inactive),4.58 µM (inactive),3.45 µM (inactive),13.9 µM (inactive),6.37 µM (inactive),5.65 µM (inactive),17.4 µM (inactive),12.1 µM (inactive),13.8 µM (inactive),,
CSc1ccc(C2OC(=O)c3ccccc32)c2ccccc12 (stereo not given),,58.3 µM (inactive),> 100 µM (inactive),39.7 µM (inactive),,> 100 µM (inactive),61.8 µM (inactive),> 100 µM (inactive),> 100 µM (inactive),> 100 µM (inactive),87.5 µM (inactive),32.3 µM (inactive),70.8 µM (inactive),52.5 µM (inactive),> 100 µM (inactive),37.3 µM (inactive),61.2 µM (inactive),> 100 µM (inactive),97.1 µM (inactive),
C=CC1(C)CC(=O)C2(O)C(C)(O1)C(OC(C)=O)C(O)C1C(C)(C)CCC(O)C12C (stereo not given),> 139 µM (inactive),> 100 µM (inactive),> 128 µM (inactive),30.5 µM (inactive),3.41 µM (inactive),104 µM (inactive),61.8 µM (inactive),> 150 µM (inactive),> 150 µM (inactive),> 76.4 µM (inactive),128 µM (inactive),28.6 µM (inactive),> 146 µM (inactive),49.8 µM (inactive),104 µM (inactive),71 µM (inactive),42.1 µM (inactive),7.62 µM (inactive),,
CCC(=O)OC[n+]1ccc2c(C)c3[nH]c4ccccc4c3c(C)c2c1,,0.413 µM (active),0.552 µM (active),,0.735 µM (active),0.323 µM (active),1.88 µM (inactive),,1.35 µM (inactive),0.454 µM (active),0.115 µM (active),0.0358 µM (active),,0.328 µM (active),0.681 µM (active),0.397 µM (active),2.45 µM (inactive),0.552 µM (active),0.0423 µM (active),
Cc1c(Cl)cccc1NC(=O)CC1Sc2ccccc2NC1=O (stereo not given),,45.5 µM (inactive) and 30.1 µM (inactive),,19.4 µM (inactive) and 19.6 µM (inactive),19.1 µM (inactive) and 17.9 µM (inactive),46.3 µM (inactive) and 31.4 µM (inactive),22.9 µM (inactive) and 22.8 µM (inactive),46.9 µM (inactive) and 49.8 µM (inactive),19.5 µM (inactive) and 18.5 µM (inactive),16.4 µM (inactive) and 20.8 µM (inactive),13.9 µM (inactive) and 15.8 µM (inactive),24.4 µM (inactive) and 26.5 µM (inactive),14.3 µM (inactive) and 12 µM (inactive),13.9 µM (inactive),46.9 µM (inactive) and 32 µM (inactive),14.7 µM (inactive) and 17.3 µM (inactive),12.3 µM (inactive) and 8.43 µM (inactive),8.39 µM (inactive) and 16 µM (inactive),6.12 µM (inactive),27.4 µM (inactive)
c1ccc(C2=NN3CN(N2)c2ccccc2OCCCOc2ccccc23)cc1,> 100 µM (inactive),> 100 µM (inactive),> 100 µM (inactive),77.4 µM (inactive),> 100 µM (inactive),> 100 µM (inactive),> 100 µM (inactive),> 100 µM (inactive),> 100 µM (inactive),> 100 µM (inactive),> 100 µM (inactive),63.8 µM (inactive),,> 100 µM (inactive),> 100 µM (inactive),> 100 µM (inactive),48.9 µM (inactive),> 100 µM (inactive),92.7 µM (inactive),
C=CCNC1=NC(=O)C(CC(=O)Nc2ccc([N+](=O)[O-])cc2[N+](=O)[O-])S1 (stereo not given),> 100 µM (inactive),> 100 µM (inactive),> 100 µM (inactive),84.5 µM (inactive),> 100 µM (inactive),> 100 µM (inactive),> 100 µM (inactive),> 100 µM (inactive),> 100 µM (inactive),> 100 µM (inactive),> 100 µM (inactive),> 100 µM (inactive),> 100 µM (inactive),> 100 µM (inactive),> 100 µM (inactive),> 100 µM (inactive),52.5 µM (inactive),> 100 µM (inactive),,
CCN/C(=N\Nc1ccc([N+](=O)[O-])cc1)P(=O)(OC(C)C)OC(C)C,> 100 µM (inactive),> 100 µM (inactive),> 100 µM (inactive),> 100 µM (inactive),25.8 µM (inactive),> 100 µM (inactive),66.5 µM (inactive),> 100 µM (inactive),51.2 µM (inactive),> 100 µM (inactive),> 100 µM (inactive),> 100 µM (inactive),> 100 µM (inactive),,> 100 µM (inactive),> 100 µM (inactive),> 100 µM (inactive),,> 100 µM (inactive),
Cc1nc2ccccc2c(=O)n1/N=C(\N=N\c1ccccc1Cl)c1ccccc1,31.6 µM (inactive),,46.3 µM (inactive),28 µM (inactive),,21.5 µM (inactive),21.1 µM (inactive),20.8 µM (inactive),,31.3 µM (inactive),> 10 µM (inactive),> 10 µM (inactive),,25.6 µM (inactive),25.8 µM (inactive),26.7 µM (inactive),15.3 µM (inactive),23 µM (inactive),,
O=C(OCC1CO1)c1cccs1 (stereo not given),> 100 µM (inactive),> 100 µM (inactive),> 100 µM (inactive),> 100 µM (inactive),,> 100 µM (inactive),> 100 µM (inactive),> 100 µM (inactive),> 100 µM (inactive),> 100 µM (inactive),,> 100 µM (inactive),> 100 µM (inactive),> 100 µM (inactive),> 100 µM (inactive),,> 100 µM (inactive),> 100 µM (inactive),,
CC12CCC(CC1)C(C)(C)O2 [EUCALYPTOL],3.56 µM (inactive),> 100 µM (inactive),42 µM (inactive),27.7 µM (inactive),,18.6 µM (inactive),2.16 µM (inactive),38 µM (inactive),54.6 µM (inactive),24.4 µM (inactive),,13.7 µM (inactive),26.4 µM (inactive),59.4 µM (inactive),11.5 µM (inactive),29.5 µM (inactive),17.1 µM (inactive),13.6 µM (inactive),> 100 µM (inactive),
